Measured values reported in PubChem BioAssay (NCI).
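Five compound concentrations were applied to cells in 96-well plates for 48 hours; endpoints were derived by simple linear interpolation of the resulting dose-response curve. TGI: total growth inhibition.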

Legend:
Assay in all cases: NCI-60 cell line screen, 48 h
MALME-3M melanoma = system: MALME-3M melanoma
HT29 colon = system: HT29 colon
MDA-MB-231 breast = system: MDA-MB-231 breast
IGROV1 ovarian = system: IGROV1 ovarian
M14 melanoma = system: M14 melanoma
HOP-92 NSCLC = system: HOP-92 NSCLC
786-0 renal = system: 786-0 renal
RPMI-8226 leukemia = system: RPMI-8226 leukemia
SK-OV-3 ovarian = system: SK-OV-3 ovarian
SN12C renal = system: SN12C renal
RXF 393 renal = system: RXF 393 renal
UACC-62 melanoma = system: UACC-62 melanoma
LOX IMVI melanoma = system: LOX IMVI melanoma
SF-539 CNS = system: SF-539 CNS
HCT-116 colon = system: HCT-116 colon
SK-MEL-5 melanoma = system: SK-MEL-5 melanoma
T-47D breast = system: T-47D breast
MOLT-4 leukemia = system: MOLT-4 leukemia
SF-295 CNS = system: SF-295 CNS
OVCAR-8 ovarian = system: OVCAR-8 ovarian

SMILES	TGI (MALME-3M melanoma) [µM]	TGI (HT29 colon) [µM]	TGI (MDA-MB-231 breast) [µM]	TGI (IGROV1 ovarian) [µM]	TGI (M14 melanoma) [µM]	TGI (HOP-92 NSCLC) [µM]	TGI (786-0 renal) [µM]	TGI (RPMI-8226 leukemia) [µM]	TGI (SK-OV-3 ovarian) [µM]	TGI (SN12C renal) [µM]	TGI (RXF 393 renal) [µM]	TGI (UACC-62 melanoma) [µM]	TGI (LOX IMVI melanoma) [µM]	TGI (SF-539 CNS) [µM]	TGI (HCT-116 colon) [µM]	TGI (SK-MEL-5 melanoma) [µM]	TGI (T-47D breast) [µM]	TGI (MOLT-4 leukemia) [µM]	TGI (SF-295 CNS) [µM]	TGI (OVCAR-8 ovarian) [µM]
COC1OC(COC(=O)NCCCCC(=O)C(F)(F)F)C(O)C(O)C1O (configuration not stated)	> 100	> 100	> 100	> 100	> 100	> 100	> 100	> 100	> 100	> 100	> 100	> 100	> 100	> 100	> 100	> 100	> 100	> 100	> 100	
CC1CC[C@@]2(OC1)OC1C[C@H]3[C@@H]4CC[C@H]5CC(OC6OC(CO)C(OC7OC(CO)C(O)C(O)C7O)C(O)C6O)CCC5(C)[C@H]4CCC3(C)C1[C@@H]2C (some centres not stated)	15.7	15.8	17.2	9.77	18.2	16.5	15.6	45.3	18.7	15.3	19.8	17.6	12.3	16.3	15	16.1	20.4	25.4	16.4	16.7
CN(C)c1ccc(/C=C/c2cc[n+](C)c3ccccc23)cc1	17.1	12.2	20.3	21	15.8	7.85	17	21.5	27	15	32.8	12	14.1	18.7	8.62	6.21	16.6	> 38.3	> 43.2	10.1
NCCCc1ccc2oc3ccccc3c2c1	34.3	26	33	43.7	30.1	43	28.3	70.7	31.3	31.9	32.4	31.9	39.9	36.9	29.7	28.5	33.7	30.5	33.2	57
O=C1CCc2cc3c(cc21)CC1(Cc2ccccc2C1)C3	> 100	14.2	> 100	> 100	> 100	35.6	> 100	25.8	> 100	> 100	> 76.8	> 88.3	> 100	56.2	> 46.3	17.8	> 100	12.7	> 87.1	> 100
O=C(CC(C(=O)c1cccs1)c1ccsc1)c1ccsc1 (configuration not stated)	> 100	> 100	> 100	> 100	50.8	> 100	> 100	> 100	> 100	> 100	> 100	> 100	> 100	94.8	> 100	64	> 100	> 100	93.3	> 100
CCOC(=O)C1(Cc2c[nH]c3ccccc23)C(O)CCCN1C(C)=O (configuration not stated)	> 100	> 100	> 100	> 100	> 100	> 100	> 100	> 100	> 100		> 100	> 100	> 100	> 100	> 100	> 100	> 100	> 100	> 100	> 100
c1ccc2c(c1)CCN2CCc1c[nH]c2ccccc12	> 10	> 10	> 10	> 10	> 10	> 10	> 10	> 10	> 10	> 10	> 10	> 10	> 10	> 10	> 10	> 10	> 10	> 10	> 10	> 10
Cc1cc(NS(=O)(=O)c2ccc(Nc3c4ccccc4nc4ccc(C(=O)Nc5ccc(S(=O)(=O)N=C(N)N)cc5)cc34)cc2)no1	> 100	> 100	> 100	> 100	> 100	> 100	> 100	> 100	> 100	> 100	> 100	> 100	> 100	> 100	> 100	> 100	> 100	> 100	> 100	> 100
CN(N)/N=N/c1nc[nH]c1C(N)=O	> 100	> 100	> 32.2	> 100	> 100	> 100	> 100	> 100	> 100	> 57.2	> 100	> 100	> 100	> 100	> 100	> 100	> 100	8.05	> 70.9	> 100
CCN1C(=O)C(=Cc2ccc(-c3ccccc3)cc2)C(=O)N(CC)C1=S	> 100	> 100	> 100	> 100	> 100	> 100	> 100	> 100	> 100	> 100	> 100	> 100	> 100	> 100	> 100	> 100	> 100	> 100	> 100	> 100
CO[C@@H](c1ccccc1)[C@H](O)[C@](O)(c1ccccc1)P(=O)(OC)OC	> 100	> 100	> 100	> 100	> 100	> 100	> 100	> 100	> 100	> 100	> 100	> 100	> 100	> 100	> 100	> 100	> 100	> 100	> 100	> 100
Cc1cc(C2(c3cc(C)c(O)c(C(=O)O)c3)OS(=O)(=O)c3ccccc32)cc(C(=O)O)c1O	> 100	> 100	> 100	> 100	> 100	> 100	> 100	> 100	> 100	> 100	> 100	> 100	> 100	> 100	> 100	> 100	> 100	> 100	> 100	> 100
CCCCCCCC(=O)N/N=C/c1ccc(Sc2nccn2C)c([N+](=O)[O-])c1	29	23.4	30.1	24.7	27.7	15	32.4	46.7	> 100	28.9	30.4	25.8	22.6	34	28.5	26.1	37	62.5	33.9	37.4
CSc1c(C(=O)Nc2ccc(Cl)cc2)c(N)[nH]c(=O)c1C#N	> 100	> 66.4	> 60.9	> 100	> 100	59.9	77.9	> 100	> 100	> 82.2	> 96.3	> 100	> 25.8	68.9	44.3	64.3	> 83.3	> 91.9	83.6	> 88.7
O=C1C=CC(=O)c2c(O)c(N[C@@H](Cc3ccccc3)C(=O)OCc3ccccc3)c(Cl)c(O)c21	> 10	> 10	8.43	> 10	> 10	> 10	> 10	> 10	> 10	> 10	> 10	> 10	7.11	8.86	4.42	8.18	> 10		> 10	> 10
O=C(O)c1cc2c(s1)C(=O)c1sccc1C2=O	0.806	19	38.4	30.9	2.91	30.1	18.1	41.7	41.4	6.85	16.9	4.56	3.04	3.85	4.81	3.32	17.3	28.6	5.25	14.6
N=c1oc2ccc(Cl)cc2cc1C(=O)Nc1ccccc1	> 100	> 100	> 100	> 100	> 100	> 100	> 100	> 100	> 70.2	> 100	> 100	> 100	> 100	> 100	> 100	> 100	> 44.8	> 100	> 100	> 100
NC1=Nc2ccccc2Sc2nnc(-c3ccc(Cl)cc3)n21	> 100	> 100	73.1	> 100	> 100	> 100	82.6	> 100	> 100	> 100	> 100	> 100	> 100	> 100	> 100	> 100	> 100	72.2	> 100	> 100
